The test system of one experiment is Botrtyis cinerea (Bc). In words: Growth inhibition assay of fungal pathogens, Bc. It is filed as cell-based. The following applies: 48 hours; read-out: Concentration at 90% Inhibition, Bc. Put shortly: (§1)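 Spores in 17% V8 medium exposed to compound at final 50, 10, 2 ppm or 2, 0.4, 0.08 ppm, with 2% DMSO. OD600 and visual ratings taken at 24 and 48 h, with blank subtracted. Percent growth inhibition derived from 48 h readings relative to 2% DMSO control.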

The conditions of experiment [1]: compound concentration 10 ppm, foliar spray, evaluated 7 days after inoculation.
In experiment [2] the test system is Collectotrichum graminicola (Cg). Description: Growth inhibition assay of fungal pathogens, Cg. It is filed as cell-based. To be noted: 48 hours; read-out: Concentration at 90% Inhibition, Cg. Put shortly: as §1
The test system of another experiment is Septoria tritici (St). In words: Growth inhibition assay of fungal pathogens, St. It is filed as cell-based. To be noted: Zymoseptoria tritici; 48 hours; read-out: Concentration at 90% Inhibition, St. Put shortly:
as §1

For experiment [3], the system named is Fusarium moniliforme (Fm). In words: Growth inhibition assay of fungal pathogens, Fm. To be noted: Fusarium verticillioides; 48 hours; read-out: Concentration at 90% Inhibition, Fm. It is filed as cell-based. Put shortly: as §1
Experiment [4] has as its system C. parapsilosis ATCC 22019. In words: Anti-Fungal Activity Assay (broth microtiter MIC), C. parapsilosis. It is filed as cell-based, Candida parapsilosis. The following applies: Lodderomyces parapsilosis, ATCC22019, 48 h, 3 replicates; MIC recorded at 48 h; read-out: MIC C. parapsilosis ATCC 22019. Put shortly: (§2)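 Candida strains were grown from frozen stock on Sabouraud dextrose agar overnight at 35° C, then suspended directly in RPMI 1640+MOPS and quantified against standard curves. Broth microdilution MIC plates followed CLSI M27-A3; MICs were read visually against growth control at 48 h, with a 24 h read added for soraphen.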

Experiment [5] relates to Blumeria graminis f sp. hordei. Description: Foliar protection test, barley powdery mildew control. It is filed as in vivo, Blumeria graminis f sp. hordei on Hordeum vulgare cv. Perry. To be noted: 168 h, compound concentration 50 ppm, foliar spray, evaluated 7 days after inoculation, read-out: Barley Powdery Mildew Control at 50 ppm. Put shortly:
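Barley cv. Perry at first true leaf (6 days) sprayed to wetness on both leaf sides with compound in 5% acetone/0.005% Tween 80, typically at 200, 100, 50, 10 or 2 ppm. Inoculated 24 h later by shaking spores from colonized plants; kept at 20-22 °C, 70% RH. Mildew colonization scored 7 days later as percent control.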

Experiment [6] deals with Phytophthora capsici (Pc). In words: Growth inhibition assay of fungal pathogens, Pc. To be noted: 48 hours, read-out: Concentration at 90% Inhibition, Pc. It is filed as cell-based. Put shortly: as §1
A further experiment has as its target Human ACC2 (Homo sapiens, UniProt O00763). In words: In vitro ACC2 inhibition assay (ADP-Glo), human ACC2. It is filed as biochemical. To be noted: 5 nM ACC2, 20 μM ATP, 20 μM acetyl-CoA. In general terms: ADP-Glo turns the ADP formed in a reaction into a luminescent signal.
The next experiment concerns the target Fungal ACC2 (UniProt Q00955). The following applies: read-out: Fungal ACC2 (IC50, in vitro ACC2 inhibition).
Another experiment has as its system Diplodia maydis (Dm). In words: Growth inhibition assay of fungal pathogens, Dm. It is filed as cell-based. The following applies: Stenocarpella maydis; 48 hours; read-out: Concentration at 90% Inhibition, Dm. Put shortly:
as §1

The next experiment relates to Rhizoctonia solani (Rs). Description: Growth inhibition assay of fungal pathogens, Rs. It is filed as cell-based. To be noted: 48 hours, read-out: Concentration at 90% Inhibition, Rs.
In a further experiment the test system is C. krusei ATCC 6258. In words: Anti-Fungal Activity Assay (broth microtiter MIC), C. krusei. It is filed as cell-based, Candida krusei. The following applies: Pichia kudriavzevii, ATCC6258, 48 h, 3 replicates; MIC recorded at 48 h; read-out: MIC C. krusei ATCC 6258. The gist of the method: as §2
Experiment [7] relates to Fusarium virguliforme (Fv). In words: Growth inhibition assay of fungal pathogens, Fv. It is filed as cell-based. The following applies: 48 hours, read-out: Concentration at 90% Inhibition, Fv. The gist of the method:
as §1

The next experiment deals with C. albicans ATCC 90028. Description: Anti-Fungal Activity Assay (broth microtiter MIC), C. albicans. It is filed as cell-based, Candida albicans. The following applies: Candida albicans, ATCC90028, 48 h, 3 replicates; MIC recorded at 48 h; read-out: MIC C. albicans ATCC 90028. Put shortly:
as §2

Converted amounts (≈) assume the structure as drawn. Where only a bound is given, the exact number is not on record here.

Sequence of Fungal ACC2 (Q00955 whole entry): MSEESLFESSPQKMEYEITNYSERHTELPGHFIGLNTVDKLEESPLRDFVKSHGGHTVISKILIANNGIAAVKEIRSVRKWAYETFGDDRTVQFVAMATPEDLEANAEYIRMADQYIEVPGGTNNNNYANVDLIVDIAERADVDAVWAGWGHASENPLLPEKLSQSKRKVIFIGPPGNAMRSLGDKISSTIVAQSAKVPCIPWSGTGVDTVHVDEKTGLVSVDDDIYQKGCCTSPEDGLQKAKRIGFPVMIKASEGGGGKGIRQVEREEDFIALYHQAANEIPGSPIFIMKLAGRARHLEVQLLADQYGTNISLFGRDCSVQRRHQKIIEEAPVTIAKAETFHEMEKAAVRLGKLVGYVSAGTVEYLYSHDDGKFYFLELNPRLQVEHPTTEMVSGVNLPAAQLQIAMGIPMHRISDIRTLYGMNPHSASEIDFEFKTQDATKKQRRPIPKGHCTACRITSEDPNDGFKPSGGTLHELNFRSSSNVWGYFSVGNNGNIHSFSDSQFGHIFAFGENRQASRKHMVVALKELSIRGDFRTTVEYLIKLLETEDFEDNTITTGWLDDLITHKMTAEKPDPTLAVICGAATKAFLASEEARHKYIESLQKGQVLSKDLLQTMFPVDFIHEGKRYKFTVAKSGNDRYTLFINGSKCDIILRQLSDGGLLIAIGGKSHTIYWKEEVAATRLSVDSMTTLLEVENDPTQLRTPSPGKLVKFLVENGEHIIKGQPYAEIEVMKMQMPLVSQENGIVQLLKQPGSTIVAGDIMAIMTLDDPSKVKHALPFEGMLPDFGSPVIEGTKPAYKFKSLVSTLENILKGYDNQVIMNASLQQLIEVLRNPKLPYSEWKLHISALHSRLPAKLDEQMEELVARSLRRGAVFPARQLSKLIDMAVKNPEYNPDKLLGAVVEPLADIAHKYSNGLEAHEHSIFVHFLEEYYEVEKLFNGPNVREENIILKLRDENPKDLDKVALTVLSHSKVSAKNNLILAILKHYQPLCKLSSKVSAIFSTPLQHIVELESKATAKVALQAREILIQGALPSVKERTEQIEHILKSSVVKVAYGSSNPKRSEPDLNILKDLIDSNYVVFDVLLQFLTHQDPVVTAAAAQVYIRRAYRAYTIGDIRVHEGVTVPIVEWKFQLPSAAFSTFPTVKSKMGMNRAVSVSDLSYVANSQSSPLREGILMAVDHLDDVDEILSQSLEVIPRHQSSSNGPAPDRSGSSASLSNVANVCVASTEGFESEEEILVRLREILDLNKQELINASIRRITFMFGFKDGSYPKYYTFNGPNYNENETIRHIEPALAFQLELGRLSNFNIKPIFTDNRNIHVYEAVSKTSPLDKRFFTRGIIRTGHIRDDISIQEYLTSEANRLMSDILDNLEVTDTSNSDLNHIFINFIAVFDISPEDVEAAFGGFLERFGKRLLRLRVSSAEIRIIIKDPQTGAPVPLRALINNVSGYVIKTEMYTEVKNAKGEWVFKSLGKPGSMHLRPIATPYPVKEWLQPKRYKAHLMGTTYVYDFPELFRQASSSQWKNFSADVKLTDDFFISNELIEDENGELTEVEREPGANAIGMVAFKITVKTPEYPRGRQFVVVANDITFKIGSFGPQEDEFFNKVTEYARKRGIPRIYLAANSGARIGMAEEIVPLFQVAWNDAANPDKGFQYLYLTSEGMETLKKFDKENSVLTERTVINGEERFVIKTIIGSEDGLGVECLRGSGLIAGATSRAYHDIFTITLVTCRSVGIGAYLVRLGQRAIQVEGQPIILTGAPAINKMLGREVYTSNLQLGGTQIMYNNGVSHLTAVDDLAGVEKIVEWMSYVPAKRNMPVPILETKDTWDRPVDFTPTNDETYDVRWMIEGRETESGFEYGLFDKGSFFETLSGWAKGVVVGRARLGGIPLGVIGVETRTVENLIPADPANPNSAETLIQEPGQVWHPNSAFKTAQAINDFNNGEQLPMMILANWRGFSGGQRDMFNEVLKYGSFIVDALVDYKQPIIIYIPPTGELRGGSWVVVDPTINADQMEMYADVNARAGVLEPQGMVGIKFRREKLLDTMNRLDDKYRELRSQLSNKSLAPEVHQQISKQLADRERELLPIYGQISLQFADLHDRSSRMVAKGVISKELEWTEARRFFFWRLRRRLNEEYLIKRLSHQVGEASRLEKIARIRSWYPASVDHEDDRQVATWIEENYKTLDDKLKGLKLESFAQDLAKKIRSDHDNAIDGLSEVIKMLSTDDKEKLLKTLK
Sequence of Human ACC2 (O00763 whole entry): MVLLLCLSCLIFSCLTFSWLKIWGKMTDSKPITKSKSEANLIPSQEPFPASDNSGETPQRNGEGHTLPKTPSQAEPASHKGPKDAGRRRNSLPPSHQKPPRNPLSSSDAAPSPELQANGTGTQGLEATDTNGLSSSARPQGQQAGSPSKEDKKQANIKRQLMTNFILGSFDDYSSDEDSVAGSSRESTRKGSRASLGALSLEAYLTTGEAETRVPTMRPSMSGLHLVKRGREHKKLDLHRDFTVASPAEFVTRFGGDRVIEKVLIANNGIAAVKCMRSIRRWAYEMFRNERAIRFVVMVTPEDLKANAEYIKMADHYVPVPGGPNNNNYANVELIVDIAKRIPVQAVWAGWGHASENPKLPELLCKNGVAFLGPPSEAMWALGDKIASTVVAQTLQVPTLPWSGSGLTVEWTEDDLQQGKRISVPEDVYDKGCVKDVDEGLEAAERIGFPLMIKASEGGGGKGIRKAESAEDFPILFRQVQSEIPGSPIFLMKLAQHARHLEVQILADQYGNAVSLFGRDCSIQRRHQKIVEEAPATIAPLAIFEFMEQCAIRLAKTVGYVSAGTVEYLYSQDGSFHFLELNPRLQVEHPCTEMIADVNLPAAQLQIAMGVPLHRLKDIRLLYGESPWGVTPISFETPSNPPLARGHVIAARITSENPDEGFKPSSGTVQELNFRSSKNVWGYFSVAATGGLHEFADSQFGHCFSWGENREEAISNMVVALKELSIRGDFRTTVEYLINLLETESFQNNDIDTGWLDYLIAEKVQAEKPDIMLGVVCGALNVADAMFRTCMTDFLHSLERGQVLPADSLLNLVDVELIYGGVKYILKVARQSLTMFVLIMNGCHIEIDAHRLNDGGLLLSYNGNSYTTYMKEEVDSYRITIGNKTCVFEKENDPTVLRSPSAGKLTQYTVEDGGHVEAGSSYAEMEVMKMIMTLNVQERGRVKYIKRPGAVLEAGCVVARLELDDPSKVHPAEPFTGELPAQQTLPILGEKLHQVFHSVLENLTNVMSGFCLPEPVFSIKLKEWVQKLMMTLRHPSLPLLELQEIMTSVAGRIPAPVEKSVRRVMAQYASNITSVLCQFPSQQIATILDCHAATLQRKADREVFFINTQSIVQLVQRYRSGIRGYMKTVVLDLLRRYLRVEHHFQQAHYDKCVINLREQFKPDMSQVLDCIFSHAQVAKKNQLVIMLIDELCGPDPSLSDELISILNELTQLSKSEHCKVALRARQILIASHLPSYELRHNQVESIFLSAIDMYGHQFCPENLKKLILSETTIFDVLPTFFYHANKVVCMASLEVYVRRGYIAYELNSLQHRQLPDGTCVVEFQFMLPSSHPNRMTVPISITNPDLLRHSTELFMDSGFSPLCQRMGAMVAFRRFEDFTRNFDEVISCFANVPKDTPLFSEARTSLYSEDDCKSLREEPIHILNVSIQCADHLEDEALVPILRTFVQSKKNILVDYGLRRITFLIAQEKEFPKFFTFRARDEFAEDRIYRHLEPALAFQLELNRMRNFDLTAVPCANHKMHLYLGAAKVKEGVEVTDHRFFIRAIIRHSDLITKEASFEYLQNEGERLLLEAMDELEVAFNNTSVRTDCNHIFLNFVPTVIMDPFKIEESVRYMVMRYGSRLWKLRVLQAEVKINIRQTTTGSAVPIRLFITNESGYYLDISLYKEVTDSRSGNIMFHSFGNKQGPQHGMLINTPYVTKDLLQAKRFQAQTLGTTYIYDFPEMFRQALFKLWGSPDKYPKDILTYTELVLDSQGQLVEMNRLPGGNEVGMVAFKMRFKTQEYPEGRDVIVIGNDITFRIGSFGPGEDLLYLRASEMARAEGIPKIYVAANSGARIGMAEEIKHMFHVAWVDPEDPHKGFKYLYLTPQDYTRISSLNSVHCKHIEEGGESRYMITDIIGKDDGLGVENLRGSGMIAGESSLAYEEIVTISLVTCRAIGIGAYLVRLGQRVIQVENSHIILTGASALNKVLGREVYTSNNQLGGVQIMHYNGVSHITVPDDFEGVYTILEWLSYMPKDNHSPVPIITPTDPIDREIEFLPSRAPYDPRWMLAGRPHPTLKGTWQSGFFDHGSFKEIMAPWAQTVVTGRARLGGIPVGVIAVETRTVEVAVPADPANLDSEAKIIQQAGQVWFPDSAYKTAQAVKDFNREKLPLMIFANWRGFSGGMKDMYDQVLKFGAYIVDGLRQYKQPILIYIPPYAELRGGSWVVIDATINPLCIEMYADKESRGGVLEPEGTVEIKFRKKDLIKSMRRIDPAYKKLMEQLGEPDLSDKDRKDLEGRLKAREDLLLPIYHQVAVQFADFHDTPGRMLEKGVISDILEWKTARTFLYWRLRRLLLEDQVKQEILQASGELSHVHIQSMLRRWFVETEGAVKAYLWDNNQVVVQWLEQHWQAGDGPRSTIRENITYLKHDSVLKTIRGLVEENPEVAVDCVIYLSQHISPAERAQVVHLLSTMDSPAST

In the case of `COCCO[C@@H](Cn1c(=O)n([C@@H]2CCN(C)C2=O)c(=O)c2c(C)c(-n3nccn3)sc21)c1cc(F)ccc1OC` [Compound I-28, 1-((R)-2-(5-fluoro-2-methoxyphenyl)-2-(2-methoxy-ethoxy)ethyl)-5-methyl-3-((R)-1-methyl-2-oxopyrrolidin-3-yl)-6-(2H-1,2,3-triazol-2-yl)thieno[2,3-d]pyrimidine-2,4(1H, 3H)-dione], the IC90 was 2 µg/mL (≈ 3.49 µM) in the experiment on Botrtyis cinerea (Bc); greater than 50 µg/mL in experiment [2]; greater than 50 µg/mL in the experiment on Septoria tritici (St); 2 µg/mL (≈ 3.49 µM) in [3]; greater than 50 µg/mL in experiment [6]; greater than 50 µg/mL with Diplodia maydis (Dm). Also, the IC90 was 10 µg/mL (≈ 17.5 µM) with Rhizoctonia solani (Rs) and greater than 50 µg/mL in experiment [7]. Further, the “Barley Powdery Mildew Control at 10 ppm” value in experiment [1] is “A (provided a compound having from 70% to 84% control of barley powdery mildew)”. Moreover, the minimum inhibitory concentration (MIC) (in experiment [4]; with C. krusei ATCC 6258; in the experiment with C. albicans ATCC 90028) was 2.1 to 4 µg/mL (≈ 3.67 to 6.99 µM) in each case. In experiment [5], the pest or weed control at 50 ppm is greater than 85%. Moreover, the IC50 at Human ACC2 lay within 10 to 100 nM; at Fungal ACC2 it was 2 to 10 nM.
With `COc1ccc(F)cc1[C@H](Cn1c(=O)n([C@H]2CCNC2=O)c(=O)c2c(C)c(-n3nccn3)sc21)OCCC#N` [Compound I-106, 3-((R)-1-(5-fluoro-2-methoxyphenyl)-2-(5-methyl-2,4-dioxo-3-((S)-2-oxopyrrolidin-3-yl)-6-(2H-1,2,3-triazol-2-yl)-3,4-dihydrothieno[2,3-d]pyrimidin-1(2H)-yl)ethoxy)propanenitrile], the IC90 was 2 µg/mL (≈ 3.61 µM) with Botrtyis cinerea (Bc); greater than 50 µg/mL in experiment [2]; greater than 50 µg/mL in the experiment on Septoria tritici (St); 2 µg/mL (≈ 3.61 µM) in experiment [3]; greater than 50 µg/mL in experiment [6]; greater than 50 µg/mL in the experiment on Diplodia maydis (Dm). For the same molecule, the IC90 with Rhizoctonia solani (Rs) is 2 µg/mL (≈ 3.61 µM); in experiment [7], 10 µg/mL (≈ 18.1 µM). The “Barley Powdery Mildew Control at 10 ppm” value in experiment [1] is “D (provided a compound having <25% control of barley powdery mildew)”. Besides, the MIC (in experiment [4]; in the experiment with C. krusei ATCC 6258; with C. albicans ATCC 90028) was 2.1 to 4 µg/mL (≈ 3.79 to 7.23 µM) each time. For the same molecule, the pest or weed control at 50 ppm in experiment [5] lay in the range of 25 to 49%. Besides, the IC50 against Human ACC2 is 10 to 100 nM; at Fungal ACC2, 0.7 to 2 nM.
Turning to `COCCO[C@@H](Cn1c(=O)n([C@@H]2CCNC2=O)c(=O)c2c(C)c(-n3cccn3)sc21)c1cc(F)ccc1OC` [Compound I-42, 1-((R)-2-(5-fluoro-2-methoxyphenyl)-2-(2-methoxy-ethoxy)ethyl)-5-methyl-3-((R)-2-oxopyrrolidin-3-yl)-6-(1H-pyrazol-1-yl)thieno[2,3-d]pyrimidine-2,4(1H,3H)-dione], the IC90 (in the experiment with Botrtyis cinerea (Bc); in experiment [2]; in the experiment on Septoria tritici (St); in experiment [3]; in [6]; in the experiment with Diplodia maydis (Dm)) was greater than 50 µg/mL in each case. Besides, the IC90 (in the experiment with Rhizoctonia solani (Rs); in experiment [7]) was greater than 50 µg/mL throughout. Further, in experiment [1], the “Barley Powdery Mildew Control at 10 ppm” value was “D (provided a compound having <25% control of barley powdery mildew)”. Further, the MIC (in [4]; in the experiment on C. krusei ATCC 6258; in the experiment on C. albicans ATCC 90028) was 2.1 to 4 µg/mL (≈ 3.77 to 7.17 µM) throughout. In addition, the pest or weed control at 50 ppm in [5] lay within 25 to 49%. Further, the IC50 on Human ACC2 lay in the range of 10 to 100 nM; on Fungal ACC2 it was 2 to 10 nM.
As to `COc1ccc(F)cc1[C@H](Cn1c(=O)n([C@@H]2CCCNC2=O)c(=O)c2c(C)c(-n3nccn3)sc21)OCCC#N` [Compound I-111, 3-((R)-1-(5-fluoro-2-methoxyphenyl)-2-(5-methyl-2,4-dioxo-3-((R)-2-oxopiperidin-3-yl)-6-(2H-1,2,3-triazol-2-yl)-3,4-dihydrothieno[2,3-d]pyrimidin-1(2H)-yl)ethoxy)propanenitrile], the IC90 with Botrtyis cinerea (Bc) is 2 µg/mL (≈ 3.52 µM); in experiment [2] it was 10 µg/mL (≈ 17.6 µM); in the experiment with Septoria tritici (St), greater than 50 µg/mL; in [3], 2 µg/mL (≈ 3.52 µM); in experiment [6], greater than 50 µg/mL; with Diplodia maydis (Dm), 10 µg/mL (≈ 17.6 µM). Moreover, the IC90 in the experiment on Rhizoctonia solani (Rs) was 2 µg/mL (≈ 3.52 µM); in experiment [7], 10 µg/mL (≈ 17.6 µM). In addition, in experiment [1], the “Barley Powdery Mildew Control at 10 ppm” value is “C (provided a compound having from 25 to 49% control of barley powdery mildew)”. In addition, the minimum inhibitory concentration (MIC) (in [4]; in the experiment on C. krusei ATCC 6258; in the experiment on C. albicans ATCC 90028) was 2.1 to 4 µg/mL (≈ 3.7 to 7.05 µM) throughout. Moreover, the pest or weed control at 50 ppm in experiment [5] is 50 to 69%. Moreover, the IC50 against Human ACC2 is 2 to 10 nM; at Fungal ACC2 it was 0.7 to 2 nM.
As to `COCCO[C@@H](Cn1c(=O)n([C@H]2CCCN(C)C2=O)c(=O)c2c(C)c(-n3nccn3)sc21)c1cc(F)ccc1OC` [Compound I-31, 1-((R)-2-(5-fluoro-2-methoxyphenyl)-2-(2-methoxy-ethoxy)ethyl)-5-methyl-3-((S)-1-methyl-2-oxopiperidin-3-yl)-6-(2H-1,2,3-triazol-2-yl)thieno[2,3-d]pyrimidine-2,4(1H,3H)-dione], the IC90 is 10 µg/mL (≈ 17 µM) in the experiment on Botrtyis cinerea (Bc); greater than 50 µg/mL in experiment [2]; greater than 50 µg/mL in the experiment with Septoria tritici (St); 2 µg/mL (≈ 3.41 µM) in experiment [3]; greater than 50 µg/mL in [6]; greater than 50 µg/mL in the experiment on Diplodia maydis (Dm). Also, the IC90 is greater than 50 µg/mL with Rhizoctonia solani (Rs) and 2 µg/mL (≈ 3.41 µM) in experiment [7]. Further, the “Barley Powdery Mildew Control at 10 ppm” value in experiment [1] is reported as “B (provided a compound having from 50 to 69% control of barley powdery mildew)”. Further, the minimum inhibitory concentration (MIC) (in experiment [4]; with C. krusei ATCC 6258; in the experiment on C. albicans ATCC 90028) was 2.1 to 4 µg/mL (≈ 3.58 to 6.82 µM) throughout. In addition, the pest or weed control at 50 ppm in experiment [5] was 70 to 84%. Further, the IC50 at Human ACC2 was 10 to 100 nM; on Fungal ACC2 it was 0.7 to 2 nM.

By MIC is commonly meant the smallest concentration in the dilution series that meets the test's criterion for growth inhibition. As a reminder, the IC50 is the concentration needed to halve the response being measured.

The record behind these values is patent US20190330224A1, “ACC INHIBITORS AND USES THEREOF” (Gilead Apollo, LLC, priority 2015, published 2019).
